Data as given in US6265423A, “Aromatic polycyclic retinoid-type derivatives, method for preparing same, and use thereof for making pharmaceutical and cosmetic compositions” (priority 1996, dated 2001).
“Also recorded” adds a separate entry of the source.

Columns and labels:
T-47D lineage = assay: SAMBA image analysis test; format: cell-based, human
Excerpt: The molecules which have shown themselves to be the most interesting in the MTT test have been evaluated in an image analysis test called SAMBA. In effect, the recent advances in the field of image analysis have allowed new approaches to the evaluation of different cellular kinetic parameters and the measurement of the distribution of chromatin. The data thereby provided are processed using different statistical tests.
The use of the Systeme d'Analyses Microscopiques a Balayage Automatique 2005 (SAMBA 2005, Alcatel TITN, France), (System of Microscopic Analyses with Automatic Sweep 2005) permits measurement of the influence of the compounds researched at three levels:
The cells in exponential growth are cultured on small glass slip plates (Kiss R. et al. Eur. J. Cancer, 27, 1268-1274, 1991) at the rate of from […] cells/ml (depending on the cellular line being considered) in 3 ml of minimum essential medium (MEM, Gibco). […]
The interest in the Feulgen coloration resides in the possibility of colouring the DNA in a specific and stoichiometric fashion (Giroud F., Cell, 44, 177-188, 1982; Kiss R. et al., J. Histochem. Cytochem., 41, 6, 935-945, 1993). For each experimental condition, 900 nuclei are analysed by the image analyser. […]
These 15 parameters are calculated by specific software, from: […]

[1] = test system: ZR-75-1, T-47D, A549 and A-427 lineages; assay: MTT test, tumour cell lines overall; format: cell-based, human
Protocol: This test is based on the mitochondrial reduction by living metabolically active cells of the MTT (3-(4,5-dimethylthiazol-2-yl)-2,5-diphenyltetrazolium bromide) of yellowish colour into a blue coloured product, formazan. The quantity of formazan obtained is directly proportional to the number of living cells. After incubation of the cells for 24 hours in microplates with 96 flat bottomed wells, the culture medium is replaced by 100 μl of fresh culture medium containing the drug to be tested.
The microplates are then incubated for 3 hours at 37° C. and centrifuged for 10 minutes at 400 g (GPR centrifuge, Beckman). The MTT solution is replaced by 100 μl of dimethylsulphoxide (Merck). The microplates are agitated (Vari-Shaker, Dynatech) for 10 minutes.
In the microplates, the control cells like the treated cells were incubated in a medium without the compounds to be tested for 24 hours. The control cells are incubated in a medium without a drug throughout the whole experiment, while the treated cells are incubated in different media. These media contain the molecule to be tested at various concentrations: 10^-8 M, 10^-6 M and 10^-4 M. All the tests are carried out in 6 duplicates.

MCF-7 cells = assay: Effect on oestrogen-induced proliferation of MCF-7 cells; format: cell-based, human; details: estradiol 10^-9 M
Protocol: MCF-7 cells and HeLa are cultivated in DMFM with phenol red to which 5% foetal calf serum is added. […] The experimental tests are carried out in DMEM without phenol red to which foetal calf serum treated with dextran carbon is added at 3%. […] The experiments using the different retinoids are carried out sheltered from the light so as to avoid any isomerisation.
So as to test the anti-proliferation effect of the retinoids, growth experiments under oestrogenic conditions were carried out on cells MCF-7 and T-47D. These are the human oestrogen-dependent mammary cancer cells which express the receptor to RE oestrogens. The effect of the molecules is evaluated after 7 days of culture in oestrogenic conditions (estradiol 10^-9 M) by dosing the cellular DNA. The cells are distributed in 24 well plates at a density of 2×10^4 cells per well. The tests with the different retinoids are carried out in triplicate and the culture medium is changed after 4 days of growth.

[2] = cited from earlier work

Row | Compound | morphonuclear / anti-tumoral effect (in words) (T-47D lineage) | inhibition of the cellular lineages (in words) [1] | effect on oestrogen-induced growth, MCF-7 (in words) (MCF-7 cells) | metabolism (in words) ([2]; chronic treatment) | adverse effects in chronic treatment (in words) [2]
1 | C/C(=C\c1ccc(C(=O)O)cc1)c1ccc2c(c1)C(C)(C)CCC2(C)C [TTNPB, reference compound] | strongly suggests a direct correlation between the cytotoxic effect of the molecule and its anti-tumoral activity; also recorded: exercises its anti-tumoral activity through a direct cytotoxic (cytocidal) effect | induces the strongest inhibition of the cellular lineages | stronger inhibiting effect than the natural ligands (all-trans RA and 9-cis RA) and than LGD1069 |  | 
2 | CC1=C(/C=C/C(C)=C/C=C/C(C)=C/C(=O)O)C(C)(C)CCC1 [CB16178, all-trans retinoic acid, reference compound] |  |  |  | an inducer of its own metabolism | powerful effect of hypervitaminose, of mucocutaneous toxicity and of teratogenecity
3 | C/C(=C/c1ccc2c(c1)C(C)(C)CCC2(C)C)c1ccc(-c2nnn[nH]2)cc1 [CB92834] | not linked to a cytotoxic effect; also recorded: mediated by an activation of the cellular death and/or an inhibition of the proliferation due to the induction of the cellular differentiation | as active on the MTT test as the reference products tested; also recorded: more active on the oestrogen-sensitive lineages such as the mammary lineages ZR-75-1 and T-47D than on the pulmonary lineages |  |  | 
